Drawing on patent US20240132477A1, “Benzimidazole Derivatives and Their Use As Inhibitors of ITK For The Treatment of Skin Disease” (PFIZER INC., priority 2020, published 2024), this text covers IC50 for 16 molecules.

Test [1] concerns the target IL-2-Inducible T-Cell Kinase (ITK) (Homo sapiens (Human), UniProt Q08881). The test can be described thus: ITK enzyme assay. To be noted: geometric mean of count n; ITK FL enzyme, BTK peptide substrate. The test is classed as biochemical. The procedure: IL-2-Inducible T-Cell Kinase (ITK) Activity, IC50 (uM)
ITK activity was determined by measuring the effect of a test compound in an ITK enzyme assay.
1.0 M HEPES Buffer pH 7.5 solution was prepared as follows: 238.3 g HEPES free acid (Sigma) and 800 mL of water were combined, and the mixture was stirred until complete dissolution. The pH was adjusted to 7.5 via titration with 5N NaOH and the volume adjusted to 1000 mL. The solution was filtered and sterilized.
ITK assay buffer was prepared as follows: 50 mL of HPLC-grade water was treated with 2 mL of 1.0 M HEPES Buffer, 500 μL of 2% Gelatin (Sigma), 1.0 mL of aqueous MgCl2 solution (1.0 M), and 1.0 mL of aqueous glutathione solution (0.5 M), and the solution was mixed. The solution was brought to 99 mL in a graduated cylinder by addition of water and sterilized through a 0.2 μm filter. 0.1 mL of Brij-35™ Surfact-AmpS™ Detergent Solution (10% w/v aqueous solution, ThermoFisher) and 1.0 mL of ATP (Teknova, 100 mM) were added and the solution was mixed.
Preparation of 1.33×ITK enzyme solution was as follows: 49.99 mL of ITK assay buffer was treated with 4.1 μL of ITK enzyme (ITK FL (N-Flag and C-His tagged, ˜72 kDa) Lake Pharma, 0.25 mg/ml in a buffer containing 25 mM Tris pH 7.8, 150 mM NaCl, 10% glycerol and 2 mM TCEP) and the mixture was gently agitated. The resulting solution was stored on ice. 30 Minutes prior to use, the enzyme solution was removed from ice and equilibrated to RT by incubation in a RT water bath.
Preparation of 4×ITK substrate solution was as follows: 50 mL of ITK assay buffer was treated with 100 μL of BTK peptide (China Peptide Company, 2 mM stock solution in DMSO). The tube was capped, mixed by gently inverting the tube, and then stored on ice. 30 Minutes prior to use, the substrate solution was removed from ice and equilibrated to RT by incubation in a RT water bath.
At the time of assay, 7.5 μL of the 1.33×ITK enzyme solution was added to plate wells containing 0.1 μL of varying concentrations of test compound in DMSO. The plate was incubated 30 min at RT. The plate wells were each treated with 2.5 uL of the 4×ITK substrate solution and the plate was sealed (TopSeal™, Perkin Elmer). The plate was spun at 1000 rpm for 30 sec and then incubated for 60 min at RT. The seal was removed, and each well was treated with 10 μL of Stop/Detect Buffer (20 mM HEPES pH 7.5, 0.01% gelatin, 1 nM LANCE PT66 (Perkin Elmer), 16.5 μg/ml Surelight APC (Perkin Elmer), 10 mM EDTA, 250 mM NaCl). The plate was again covered and was spun at 1000 rpm for 30 seconds. The plate was allowed to incubate overnight at RT and in a closed carrier to reduce dehydration. The seal was removed, and the fluorescence was read with a plate reader with […]. The concentrations and resulting effect values for the tested compound were plotted and the concentration of compound required for 50% effect (IC50) was determined with the four-parameter logistic dose response equation.

Test [2] deals with IL-2 in supernatants from activated CD4+ human T-cells. The test can be described thus: IL-2 inhibition in supernatants from activated CD4+ human T-cells (cisbio HTRF). As to conditions: T-cell; geometric mean of count n; activated CD4+ human T-cells, 20 to 24 hrs; read-out: IL-2 IC50. The test is classed as cell-based. The procedure:
IL-2-Inhibition Activity, IC50 (uM)
IL-2 inhibition activity in supernatants from activated CD4+ human T-cells was determined by measuring the effect of a test compound on the activity using the cisbio HTRF™ technology.
Human CD4+ T cells were activated with CD3/CD28 for 3 days and expanded for an additional 4-6 days (7 to 9 days total). On day 0, frozen CD4+ T cells were thawed, treated with CD3/CD28 Dynabeads, and incubated at 37° C./5% CO2. On day 3, the beads were removed, and the cells were diluted to 5×10^5 cells/cm^2, placed in G-Rex10 flask, and incubated at 37° C./5% CO2. On day 7 to day 9 the cells were removed from the G-Rex flasks, counted and diluted back to 1×10^6 cells/ml in standard tissue culture flask.
The expanded CD4+ T-cells were centrifuged at 300×g for 10 minutes and resuspended to 0.5 million cells per ml (30,000 cells/well). 60 μl of CD4+ T cells were added per well to a 384 well plate containing 0.1 μL of varying concentrations of test compound in DMSO. The plates were incubated for 15 min at 37° C./5% CO2. 20 μl of diluted ImmunoCult™ (STEMCELL Technologies, 1:12.5 in T cell assay media) were added to all wells of the plate (1:50 final assay concentration). The plates were incubated for an additional 20 to 24 hrs at 37° C./5% CO2. The plates were centrifuged at 300×g for 10 minutes. 16 μL of supernatant was removed and combined with 4 μl of IL-2 HTRF Abs. (cisbio kit). Plates were incubated for 3 hours at RT and read with an EnVision plate reader at 665 nm and 615 nm wavelengths. The concentrations and resulting effect values for the tested compound were plotted and the concentration of compound required for 50% effect (IC50) was determined with the four-parameter logistic dose response equation.
Background: TR-FRET usually uses a lanthanide donor and a delayed reading to cut background.

Structures are written as SMILES.

Sequence of IL-2-Inducible T-Cell Kinase (ITK) (Q08881 whole entry): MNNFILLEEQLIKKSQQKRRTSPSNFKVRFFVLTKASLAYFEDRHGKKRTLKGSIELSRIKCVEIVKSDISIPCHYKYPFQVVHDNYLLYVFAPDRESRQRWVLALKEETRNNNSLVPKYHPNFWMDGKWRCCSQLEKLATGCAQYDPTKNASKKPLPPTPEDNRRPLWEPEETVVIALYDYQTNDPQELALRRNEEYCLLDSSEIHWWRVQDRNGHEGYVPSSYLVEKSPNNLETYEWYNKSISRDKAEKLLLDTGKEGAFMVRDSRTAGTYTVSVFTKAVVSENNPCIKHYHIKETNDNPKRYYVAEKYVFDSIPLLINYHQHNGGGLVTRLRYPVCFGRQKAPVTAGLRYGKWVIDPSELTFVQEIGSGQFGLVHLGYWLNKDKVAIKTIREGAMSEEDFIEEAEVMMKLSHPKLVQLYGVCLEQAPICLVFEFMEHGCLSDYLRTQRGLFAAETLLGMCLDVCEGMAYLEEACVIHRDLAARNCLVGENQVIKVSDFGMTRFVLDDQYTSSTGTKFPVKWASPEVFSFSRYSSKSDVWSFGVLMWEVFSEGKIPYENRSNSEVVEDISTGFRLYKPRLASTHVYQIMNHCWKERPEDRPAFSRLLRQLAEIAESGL

A word on the IC50: it is the concentration that inhibits the measured activity by half. As for `Cc1cc2[nH]c(-c3n[nH]c4c3C[C@@H]3C[C@]3(C)C4)nc2cc1N(C)C(=O)CN1CCCOC1=O` [Example 1, N-Methyl-N-(6-methyl-2-((4aS,5aR)-5a-methyl-1,4,4a,5,5a,6-hexahydrocyclopropa[f]indazol-3-yl)-1H-benzo[d]imidazol-5-yl)-2-(2-oxo-1,3-oxazinan-3-yl)acetamide], the half-maximal inhibitory concentration (IC50) in test [1] was determined as 3 nM; in test [2], 59 nM.

Take `CC(=O)N(C)c1ccc2[nH]c(-c3n[nH]c4c3C[C@H]3C(F)(F)[C@@]3(C)C4)nc2c1` [Example 3, N-(2-((4aR,5aS)-5,5-difluoro-5a-methyl-1,4,4a,5,5a,6-hexahydrocyclopropa[f]indazol-3-yl)-1H-benzo[d]imidazol-5-yl)-N-methylacetamide]: the figures for the IC50 in test [1] and in test [2] were 821 nM and 848 nM, respectively.

As to `CCN(C(C)=O)c1cc2nc(-c3n[nH]c4c3C[C@@H]3C[C@]3(C)C4)[nH]c2cc1C` [Example 5, N-ethyl-N-(6-methyl-2-((4aS,5aR)-5a-methyl-1,4,4a,5,5a,6-hexahydrocyclopropa[f]indazol-3-yl)-1H-benzo[d]imidazol-5-yl)acetamide], the IC50 in test [1] came out at 16 nM; in test [2], 86 nM.

As to `CC(=O)N(C)c1cc2nc(-c3n[nH]c4c3C[C@@H]3C[C@]3(C)C4)[nH]c2c(F)c1C` [Example 8, N-(7-fluoro-6-methyl-2-((4aS,5aR)-5a-methyl-1,4,4a,5,5a,6-hexahydrocyclopropa[f]indazol-3-yl)-1H-benzo[d]imidazol-5-yl)-N-methylacetamide], the IC50 in test [1] worked out at 20 nM; in test [2] it was 129 nM.

For `CC(=O)N(C)c1cc2nc(-c3n[nH]c4c3C[C@@H]3C[C@]3(C)C4)[nH]c2cc1Br` [Example 9, N-(6-bromo-2-((4aS,5aR)-5a-methyl-1,4,4a,5,5a,6-hexahydrocyclopropa[f]indazol-3-yl)-1H-benzo[d]imidazol-5-yl)-N-methylacetamide], the values for the IC50 in test [1] and in test [2] were 20 nM and 139 nM, respectively.

Turning to `C[C@H](C(=O)N(C)c1cc(F)c2nc(-c3n[nH]c4c3C[C@@H]3C[C@]3(C)C4)[nH]c2c1)N1CCCOC1=O` [Example 10, (R)-N-(4-fluoro-2-((4aS,5aR)-5a-methyl-1,4,4a,5,5a,6-hexahydrocyclopropa[f]indazol-3-yl)-1H-benzo[d]imidazol-6-yl)-N-methyl-2-(2-oxo-1,3-oxazinan-3-yl)propenamide], the half-maximal inhibitory concentration (IC50) was found to be 49 nM in test [1] and 342 nM in test [2].

On to `C[C@@H](C(=O)N(C)c1cc(F)c2nc(-c3n[nH]c4c3C[C@@H]3C[C@]3(C)C4)[nH]c2c1)N1CCCOC1=O` [Example 11, (S)-N-(4-fluoro-2-((4aS,5aR)-5a-methyl-1,4,4a,5,5a,6-hexahydrocyclopropa[f]indazol-3-yl)-1H-benzo[d]imidazol-6-yl)-N-methyl-2-(2-oxo-1,3-oxazinan-3-yl)propenamide], for which the IC50 was determined as 31 nM in test [1] and 324 nM in test [2].

On to `Cc1cc2nc(-c3n[nH]c4c3C[C@@H]3C[C@]3(C)C4)[nH]c2cc1N(C)C(=O)C1(F)CCOCC1` [Example 12, 4-fluoro-N-methyl-N-(5-methyl-2-((4aS,5aR)-5a-methyl-1,4,4a,5,5a,6-hexahydrocyclopropa[f]indazol-3-yl)-1H-benzo[d]imidazol-6-yl)tetrahydro-2H-pyran-4-carboxamide], for which the IC50 is 7 nM in test [1] and 47 nM in test [2].

For `Cc1cc2nc(-c3n[nH]c4c3C[C@@H]3C[C@]3(C)C4)[nH]c2cc1N(C)C(=O)C1C[C@@H]2[C@H](C1)C2(F)F` (stereo partly drawn) [Example 13, (1R,5S)-6,6-difluoro-N-methyl-N-(5-methyl-2-((4aS,5aR)-5a-methyl-1,4,4a,5,5a,6-hexahydrocyclopropa[f]indazol-3-yl)-1H-benzo[d]imidazol-6-yl)bicyclo[3.1.0]hexane-3-carboxamide], the figures for the IC50 in test [1] and in test [2] were 7 nM and 49 nM, respectively.

For the molecule `Cc1cc2[nH]c(-c3n[nH]c4c3C[C@@H]3C[C@]3(C)C4)nc2cc1N(C)C(=O)C(C)N1CCCCC1` (some centres unmarked) [Example 14], the IC50 in test [1] was 47 nM; in test [2], 196 nM.

Turning to `Cc1cc2[nH]c(-c3n[nH]c4c3C[C@@H]3C[C@]3(C)C4)nc2cc1N(C)C(=O)C(C)N1CCCOCC1` (stereo partly drawn) [Example 15, N-methyl-N-(6-methyl-2-((4aS,5aR)-5a-methyl-1,4,4a,5,5a,6-hexahydrocyclopropa[f]indazol-3-yl)-1H-benzo[d]imidazol-5-yl)-2-(1,4-oxazepan-4-yl)propenamide], the IC50 is 42 nM in test [1] and 166 nM in test [2].

For `CCc1cc2[nH]c(-c3n[nH]c4c3C[C@@H]3C[C@]3(C)C4)nc2cc1N(C)C(C)=O` [Example 16, N-(6-ethyl-2-((4aS,5aR)-5a-methyl-1,4,4a,5,5a,6-hexahydrocyclopropa[f]indazol-3-yl)-1H-benzo[d]imidazol-5-yl)-N-methylacetamide], the IC50 in test [1] stood at 23 nM; in test [2], 118 nM.

Regarding `Cc1cc2[nH]c(-c3n[nH]c4c3C[C@@H]3C[C@]3(C)C4)nc2cc1N(C)C(=O)C(C)N1CCCC1=O` (stereo partly drawn) [Example 18, N-Methyl-N-(5-methyl-2-((4aS,5aR)-5a-methyl-1,4,4a,5,5a,6-hexahydrocyclopropa[f]indazol-3-yl)-1H-benzo[d]imidazol-6-yl)-2-(2-oxopyrrolidin-1-yl)propenamide], the IC50 in test [1] was found to be 54 nM; in test [2], 370 nM.

On to `Cc1cc2[nH]c(-c3n[nH]c4c3C[C@@H]3C[C@]3(C)C4)nc2cc1N(C)C(=O)C1CC1` [Example 19, N-Methyl-N-(5-methyl-2-((4aS,5aR)-5a-methyl-1,4,4a,5,5a,6-hexahydrocyclopropa[f]indazol-3-yl)-1H-benzo[d]imidazol-6-yl)cyclopropanecarboxamide], for which the IC50 in test [1] came out at 8 nM; in test [2] it was 67 nM.

Regarding `Cc1cc2[nH]c(-c3n[nH]c4c3C[C@@H]3C[C@]3(C)C4)nc2cc1N(C)C(=O)CN1CCCCC1=O` [Example 20, N-Methyl-N-(5-methyl-2-((4aS,5aR)-5a-methyl-1,4,4a,5,5a,6-hexahydrocyclopropa[f]indazol-3-yl)-1H-benzo[d]imidazol-6-yl)-2-(2-oxopiperidin-1-yl)acetamide], the IC50 was determined as 4 nM in test [1] and 59 nM in test [2].

For `CC(=O)N(C)CC(=O)N(C)c1cc2nc(-c3n[nH]c4c3C[C@@H]3C[C@]3(C)C4)[nH]c2cc1C` [Example 21, N-Methyl-N-(5-methyl-2-((4aS,5aR)-5a-methyl-1,4,4a,5,5a,6-hexahydrocyclopropa[f]indazol-3-yl)-1H-benzo[d]imidazol-6-yl)-2-(N-methylacetamido)acetamide], the IC50 turned out to be 4 nM in test [1] and 79 nM in test [2].
